T1: mCX3CR1 (Mus musculus, UniProt Q9Z0D9)
T1 construct: expressed in transfected cells; stably expresses a Ca2+ sensitive photo-protein
T1 sequence (Q9Z0D9 1-354): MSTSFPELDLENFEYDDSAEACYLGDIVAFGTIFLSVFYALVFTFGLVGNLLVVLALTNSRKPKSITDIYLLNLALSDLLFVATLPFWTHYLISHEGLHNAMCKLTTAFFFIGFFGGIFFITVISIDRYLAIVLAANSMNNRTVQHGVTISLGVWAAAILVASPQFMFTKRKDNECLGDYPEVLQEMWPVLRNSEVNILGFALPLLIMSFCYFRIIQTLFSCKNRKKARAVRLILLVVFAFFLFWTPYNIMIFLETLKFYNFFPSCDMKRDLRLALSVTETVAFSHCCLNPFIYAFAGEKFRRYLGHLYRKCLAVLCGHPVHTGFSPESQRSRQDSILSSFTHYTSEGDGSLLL

T2: rCX3CR1 (Rattus norvegicus, UniProt P35411)
T2 construct: expressed in transfected cells; stably expresses a Ca2+ sensitive photo-protein
T2 sequence (P35411 1-354): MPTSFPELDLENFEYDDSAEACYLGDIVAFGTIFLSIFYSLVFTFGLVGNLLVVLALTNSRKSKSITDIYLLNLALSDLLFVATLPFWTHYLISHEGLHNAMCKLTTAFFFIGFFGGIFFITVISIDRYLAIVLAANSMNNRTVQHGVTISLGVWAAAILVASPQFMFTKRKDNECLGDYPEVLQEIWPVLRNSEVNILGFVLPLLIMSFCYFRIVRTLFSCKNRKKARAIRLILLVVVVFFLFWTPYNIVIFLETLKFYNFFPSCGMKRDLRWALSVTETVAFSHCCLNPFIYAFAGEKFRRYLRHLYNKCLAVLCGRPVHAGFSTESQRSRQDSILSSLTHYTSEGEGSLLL

T3: hCX3CR1 (Homo sapiens, UniProt P49238)
T3 sequence (P49238 1-355): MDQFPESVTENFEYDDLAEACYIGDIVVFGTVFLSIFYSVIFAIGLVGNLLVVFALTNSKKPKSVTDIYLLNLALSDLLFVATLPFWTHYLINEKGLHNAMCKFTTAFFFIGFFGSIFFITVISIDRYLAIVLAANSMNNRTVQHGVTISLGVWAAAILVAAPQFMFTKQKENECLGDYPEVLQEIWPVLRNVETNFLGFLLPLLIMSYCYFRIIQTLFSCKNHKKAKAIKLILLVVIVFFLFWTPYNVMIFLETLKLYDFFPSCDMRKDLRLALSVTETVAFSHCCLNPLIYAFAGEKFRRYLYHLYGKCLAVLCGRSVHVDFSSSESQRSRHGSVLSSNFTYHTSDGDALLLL


Assays:
Type in all cases: cell-based
mCX3CR1 = target: T1, mCX3CR1; experiment: Ga16 assay, CX3CR1 agonism, Ca2+ sensitive photo-protein readout (FLIPRTETRA); conditions: mouse CX3CR1 cell line
Method in brief: (§1)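 Cells expressing human, mouse or rat CX3CR1 with a stably expressed Ca2+-sensitive photoprotein were loaded with 10 μM coelenterazine in tyrode buffer pH 7.4 for 3 h at room temperature. Agonist-mode luminescence kinetics were recorded for 90 s after compound injection on FLIPRTETRA. Dose-response runs were done in quadruplicate, with fractalkine as the reference agonist.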

rCX3CR1 = target: T2, rCX3CR1; experiment: as above; conditions: rat CX3CR1 cell line
Method in brief: as §1

hCX3CR1 [1] = target: T3, hCX3CR1; experiment: ChAMPion assay (CHO ChAMPion/CX3CR1 K1.6, cAMP/CNG channel, photoprotein luminescence); design: expressed in transfected cells; stably expresses a Ca2+ sensitive photo-protein; conditions: ChAMPion assay, CHO ChAMPion/CX3CR1 K1.6, Forskolin 3 μM; read-out: hCX3CR1 agonism EC50
Description: Buffers and reagents. PBS (D-PBS without calcium and magnesium; EuroClone); Trypsin (Trypsin 0.05%, EDTA 0.02% in PBS; EuroClone); DMSO (Sigma); Tyrode buffer Ca^2+ free: in-house solution (130 mM NaCl, 5 mM KCl, 1 mM MgCl^2, 5 mM NaHCO3, 20 mM HEPES (pH 7.4); sterile filtered and autoclaved); Tyrode buffer 10 mM Ca^2+: in-house solution (130 mM NaCl, 5 mM KCl, 10 mM CaCl2), 1 mM MgCl2, 5 mM NaHCO3, 20 mM HEPES, in water at pH 7.4, sterile filtered); Coelenterazine, native (Biosynth); stock 10 mM; Agonist: Recombinant Human Fractalkine (CX3CL1) (PeproTech); stock: 10 μM in standard Tyrode buffer/BSA 01%; stored at −20° C.
Cell line. The final clone for the hCX3CR1 assay was CHO ChAMPion/CX3CR1 K1.6. ChAMPion technology is based on the co-expression of a Ca^2+ sensitive photoprotein and of a cyclic nucleotide-gated (CNG) channel acting as a cAMP biosensor in a CHO-K1 cell line. CNG channels are non-selective ligand gated cation channels that can be opened by the direct interaction with either cAMP or cGMP, at the intracellular C-terminus site of the channel. Channel opening allows the flux of extracellular calcium into the cell cytoplasm and its transient elevation can be recorded by means of several different calcium indicators. In the chAMPion system, the CNG channel has been modified to display sensitivity to cAMP levels in the physiological range. In addition the calcium influx through the opened channel is immediately detected by the recording of the photoprotein-emitted flash type luminescence signal.
The chAMPion cell line system can monitor the activation of transfected Gαi-coupled receptors, which elicit changes in 3,‘5’-adenosine cyclic monophosphate (cAMP) levels, which in turn is responsible for CNG opening and consequent Ca^2+ influx.
Assay protocol. Experiments were performed in 384 MTP format. Cells were seeded at 10,000 cells/well in 25 μL/well complete growth medium without selection antibiotics in 384-well plates. Twenty-four hours later, cells were assayed for the response to various compounds using the Ca^2+ sensitive photo-protein stably expressed in the cells as readout.
The experiment was performed in a 384-well format according to the following procedure: • 24h after seeding, pre-incubate the cells at room temperature for 1 hour. • Then remove the culture medium. • Load cells with 20 μL/well of Ca^2+ free tyrode buffer+ceolenterazine 5 μM. • Incubate cell plates for 4 hours at RT. • 10 μl/well of 3× concentrated compounds in Ca^2+ free tyrode buffer+Forskolin 9 μM (final Forskolin concentration=3 μM) are applied to the cells (at 10 μl/s). Ten minutes later a second injection is performed: 10 μl/well of Ca^2+ free tyrode buffer+BSA 0.04% (final BSA concentration=0.01%). Twenty minutes later a third injection is performed: 20 μl/well of 10 mM Ca^2+ tyrode buffer (final Ca^2+ concentration was 3.3 mM) and luminescence is recorded for 90 seconds.
Data from FLIPRTETRA measurements are analyzed with the Genedata Screener© software.

hCX3CR1 [2] = target: T3, hCX3CR1; experiment: Ga16 assay, CX3CR1 agonism, Ca2+ sensitive photo-protein readout (FLIPRTETRA); design: expressed in transfected cells; stably expresses a Ca2+ sensitive photo-protein; conditions: human CX3CR1 cell line
Method in brief: as §1

primary human monocytes = experiment: Chemotaxis assay, transwell migration of primary human monocytes; conditions: 4 hours, CellTiter-Glo, FIG. 2
Description: Primary Human Monocytes Migrate Along a Chemotactic Gradient towards CX3CR1 Agonists
The chemotaxis assay assesses the CX3CR1-dependent migration of primary human monocytes towards fractalkine and active CX3CR1 agonists. To determine the migration index, monocytes were positively selected from freshly isolated human PBMCs and seeded at 50,000 cells per insert, on the upper chamber of a transwell plate with a pore size of 5 μm. […] Monocytes were allowed to migrate for 4 hours, and subsequently detected in the lower chamber with the CellTiter-Glo Assay, which measures metabolically active cells.

Molecule | EC50 (mCX3CR1) | EC50 (rCX3CR1) | EC50 (hCX3CR1 [1]) | EC50 (hCX3CR1 [2]) | migration of primary human monocytes towards substance (chemotaxis) (primary human monocytes)
CCC(CC)(CNC(=O)c1cc2c(s1)CCCCCC2)CN1CCCC1 [Example 9, N-[2-ethyl-2-(pyrrolidin-1-ylmethyl)butyl]-4,5,6,7,8,9-hexahydrocycloocta[b]thiophene-2-carboxamide] | 11.8 µM | 14.9 µM | 4.1 µM | 11 µM | –
fractalkine: recombinant human fractalkine (CX3CL1), large membrane-anchored or secreted cytokine, ligand of CX3CR1 (protein, UniProt P78423 25-397, looked up) Fractalkine: QHHGVTKCNITCSKMTSKIPVALLIHYQQNQASCGKRAIILETRQHRLFCADPKEQWVKDAMQHLDRQAAALTRNGGTFEKQIGEVKPRTTPAAGGMDESVVLEPEATGESSSLEPTPSSQEAQRALGTSPELPTGVTGSSGTRLPPTPKAQDGGPVGTELFRVPPVSTAATWQSSAPHQPGPSLWAEAKTSEAPSTQDPSTQASTASSPAPEENAPSEGQRVWGQGQSPRPENSLEREEMGPVPAHTDAFQDWGPGSMAHVSVVPVSSEGTPSREPVASGSWTPKAEEPIHATMDPQRLGVLITPVPDAQAATRRQAVGLLAFLGLLFCLGVAMFTYQSLQGCPRKMAGEMAEGLRYIPRSCGSNSYVLVPV | – | – | – | – | monocytes migrated towards fractalkine

— patent US12258337B2, “Bicyclic CX3CR1 receptor agonists” (Board of Regents, The University of Texas System, priority 2019, dated 2025)
